{"source": "patent US20080226596A1", "about": "“Therapeutic compositions and methods useful in treating hepatitis” (priority 2006, published 2008)", "key": {"MDA231 cells": {"system": "MDA231 cells", "experiment": "MDA231 breast cancer cell growth, MTT assay", "type": "cell-based, human", "details": "single agent, 50-100 μg/ml, day 6", "protocol": "(§1) For cell proliferation assays, cells were grown in 10% FCS culture medium containing various amounts of IFNs and/or sodium stibogluconate in 96 well plates and cultured at 37° C. for 3 or 6 days as indicated. The numbers of viable cells in proliferation assays were determined by MTT assays as described in Phatak et al., J. Immunol. 167, 3391 (2001)."}, "DS cells": {"system": "DS cells", "experiment": "DS lymphoma cell growth, MTT assay", "type": "cell-based, human", "details": "day 3; IFN-alpha 1,000 u/ml", "protocol": "as §1"}, "intracellular Flag-PRL-2": {"target": "T1, intracellular Flag-PRL-2 (Homo sapiens, UniProt Q12974)", "T1 construct": "expressed in transfected cells; host or cells: NIH3T3 transfectants, pBabepuro vector", "T1 sequence (Q12974 whole entry)": "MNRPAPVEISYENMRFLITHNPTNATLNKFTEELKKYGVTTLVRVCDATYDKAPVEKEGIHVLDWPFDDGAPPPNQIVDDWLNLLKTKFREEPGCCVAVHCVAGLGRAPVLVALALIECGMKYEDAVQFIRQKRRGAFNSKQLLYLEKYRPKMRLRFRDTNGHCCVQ", "experiment": "Immunocomplex PTPase assay, Flag-PRL-2 NIH3T3 transfectants", "type": "cell-based, mouse", "protocol": "(§2) Immunocomplex PTPase assays were performed to assess the effects of sodium stibogluconate on intracellular PTPases. Cells were untreated or treated with sodium stibogluconate for 5 minutes, washed with fresh medium and then lysed in cold lysis buffer (50 mM Tris, pH 7.4; 150 mM NaCl; 1% NP40; 2 mM PMSF; 20, g/ml of Aprotinin). The lysates were incubated with an anti-Flag antibody in immunoprecipitation assays. The immunocomplexes were collected with protein G sepharose beads (Pharmacia) and washed in cold lysis buffer for 4 times. […] 100 µL of malachite green solution (UBI) was added to each reaction prior to measurement of OD660 to quantify the amounts of free phosphate cleaved by the PTPases from the peptide substrate (Pathak et al., J. Imumol. 167, 3391 (2001)). The remaining 10% contents of individual samples were analyzed by SDS-PAGE/Western blotting to quantify the relative amounts of the phosphatase proteins. […]\n(§3) The effects of sodium stibogluconate on intracellular PTPases were assessed using NIH3T3 or WM9 transfectants. […]"}, "DU145 cells": {"system": "DU145 cells", "experiment": "DU145 prostate cancer cell growth, MTT assay", "type": "cell-based, human", "details": "single agent, 50-100 μg/ml, day 6", "protocol": "as §1\nNIH3T3 (Yi, et al., Blood 85, 87 (1995)), WM9 (Forsberg, et al., Proc. Nat. Acad Sci. USA 90, 393 (1993)), DU145 (Mickey, et al., Cancer Res. 37, 4049 (1977)), LoVo (Drewinko, et al., Cancer Res. 36, 467 (1976)), HEY (Buick, et al., Cancer Res. 45, 3668 (1985)), U251 (Yoshida, et al., Cancer 50, 410 (1982)), A549 (Giard, et al., J. Natl. Cancer Inst. 51, 1417 (1973)) and SK-N-SH (Helson, et al., Cancer Res. 35, 2594 (1975)) cell lines have been described and were cultured in RPMI 1640 supplemented with 10% fetal calf serum (FCS). For measurement of sodium stibogluconate effects on cell growth in vitro, cells were cultured in the absence (−) or presence (+) of various amounts of sodium stibogluconate for 6 days with viable cells quantified by MTT assays (Mosmann, J. Immunol. Methods 65, 55 (1983)). Percentages of growth inhibition by sodium stibogluconate were calculated (.+−.x"}, "intracellular Flag-PRL-1": {"target": "T2, intracellular Flag-PRL-1 (Homo sapiens, UniProt Q93096)", "T2 construct": "expressed in transfected cells; host or cells: NIH3T3 (A51) or WM9 (A61) transfectants, pBabepuro vector", "T2 sequence (Q93096 whole entry)": "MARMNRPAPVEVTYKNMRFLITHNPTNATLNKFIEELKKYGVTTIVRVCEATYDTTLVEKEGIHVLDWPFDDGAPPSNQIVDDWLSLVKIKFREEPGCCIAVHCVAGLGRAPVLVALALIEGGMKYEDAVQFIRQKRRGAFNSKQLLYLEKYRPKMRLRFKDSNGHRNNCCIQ", "experiment": "Immunocomplex PTPase assay, Flag-PRL-1 NIH3T3 transfectants", "type": "cell-based, mouse", "details": "5 min treatment", "protocol": "as §2, §3"}, "[1]": {"system": "Jak2/Stat5 tyrosine phosphorylation", "experiment": "IL-3-induced Jak2/Stat5 tyrosine phosphorylation in Baf3 cells", "type": "cell-based, murine", "protocol": "For induction of cellular protein phosphorylation by sodium stibogluconate or pervanadate, Baf3 cells were incubated in 0.1% FCS-RPMI 1640 medium at 37° C. for 16 hours. The cells were then washed twice in RPMI 1640 medium and incubated with sodium stibogluconate or pervanandate (0.1 mM) for various times prior to termination by lysing cells in cold lysis buffer (50 mM Tris, pH 7.4; 150 mM NaCl; 0.2 mM Na3VO4; 20 mm NaF; 1% Nonidet P-40; 2 mM PMSF; 20 µg/ml of Aprotinin and 1 mM of sodium molybdic acid). To determine the effect of sodium stibogluconate or potassium antimonyl tartrate on IL-3-induced Jak/Stat phosphorylation, Baf3 cells were deprived of the growth factor for 16 hours in 0.1% FCS RPMI 1640 medium and then incubated with or without sodium stibogluconate or potassium antimonyl tartrate for 10 minutes. IL-3 was next added to the cell suspension and incubated for various times. The Cells were then harvested and lysed in cold lysis buffer at 4° C. for 45 minutes. Total cell lysates (TCL) were separated in SDS-PAGE gels, blotted onto nitrocellulose membrane (Schleicher & Schuell), probed with specific antibodies and detected using an enhanced chemiluminescence kit (ECL, Amersham, Arlington Heights, Ill.)."}}, "note": "“Also recorded” adds a separate entry of the source."}
{"smiles": "O.O.O.O.O.O.O.O.O.O=C([O-])[C@@H]1[O][Sb]2([O-])([O][Sb]34([OH])[O][C@H]([C@H](O)CO)[C@H]([O]3)[C@H](C(=O)[O-])[O]4)[O][C@H]([C@H](O)CO)[C@@H]1[O]2.[Na+].[Na+].[Na+]", "note": "[sodium stibogluconate]", "values": [{"measurement": "killing of MDA231 cells", "setting": "MDA231 cells", "result": "killed all cells; also recorded: complete or near complete killing"}, {"measurement": "activity against DS cells", "setting": "DS cells", "result": "modest activity"}, {"measurement": "PTPase activity of Flag-PRL-2 immunocomplexes from treated cells", "setting": "intracellular Flag-PRL-2; 5 min treatment", "result": "lack of PTPase activity; also recorded: markedly reduced PTPase activity"}, {"measurement": "time for full removal of effect on intracellular PRL-2 activity", "setting": "intracellular Flag-PRL-2; brief treatment", "result": "at least 24 hours"}, {"measurement": "killing of DU145 cells", "setting": "DU145 cells", "result": "killed all cells; also recorded: complete or near complete killing; also recorded: near-complete cell killing"}, {"measurement": "PTPase activity of Flag-PRL-1 immunocomplexes from treated cells", "setting": "intracellular Flag-PRL-1", "result": "little PTPase activities"}, {"measurement": "phosphotyrosine levels of Jak2 and Stat5 relative to cells without drug", "setting": "[1]; IL-3 stimulated, drug 10 minutes before, densitometry", "result": "about twice"}, {"measurement": "Jak2/Stat5 tyrosine phosphorylation by drug alone", "setting": "[1]; no IL-3, 37 C 16 hours", "result": "failed to induce Jak2/Stat5 tyrosine phosphorylation"}]}
